Experimental data from PMC11562788, “Insights into the Hierarchical Assembly of a Chemically Diverse Peptide Hydrogel Derived from Human Semenogelin I” (ACS Nano, 2024).
Values after ≈ are worked out from the molar mass of the structure shown. “Also recorded” adds a separate entry of the source. Residues, ends and D or L forms follow the SMILES beside them.

What was measured:
Assay type in all cases: physicochemical
[1] = Cryo-TEM of fibril formation and morphology
Experimental: Images were obtained at the National Center for High Resolution Electron Microscopy within Lund University on a JEOL JEM-2200 transmission electron microscopy instrument using a TVIPS F416 camera with an accelerator voltage of 200 kV. […] Grids were glow-discharged prior to sample preparation. Image processing was performed on the open-source software ImageJ (https://imagej.nih.gov) with the FIJI processing package.

[2] = SAXS/WAXS of fibrils, elliptical cylinder model fit; details: for Fibril axis ratio / Fibril cross-sectional area / Fibril minor radius (minor semiaxis): SAXS, elliptical cylinder model fit, 2.0 mM, day 7 at 21 °C
Experimental: Small- and wide-angle X-ray scattering (SAXS/WAXS) measurements were performed on a SAXSLabs Ganesha pinhole instrument (JJ X-ray System Aps) with an X-ray microsource (Xenocs) and a two-dimensional 300k Pilatus detector (Dectris Ltd., Switzerland). The wavelength, λ, used for all scattering experiments was 1.54 Å, and samples were measured at three sample-to-detector distances. All samples (200 μL) were loaded into a 1.5 mm diameter quartz capillary (Hilgenberg GmbH, Malsfeld, Germany), and the time-averaged scattering intensities were analyzed using a python code. The scattering intensity was corrected to an absolute scale by calibration against water. Supramolecular dimensions were extracted from SAXS data by using the SasView software and fitting the scattering curves to an elliptical-cylinder model (www.sasview.org).

[3] = Hydrogelation and gel appearance by visual inspection
Experimental: All FTIR measurements were collected on samples where a trifluoroacetate (TFA^–) to chloride ion exchange was performed to eliminate signals from the TFA^– carbonyl moiety in the amide I spectral region (Figure S1). FTIR spectra were collected for P0–P5 in D2O at six pD values (3.0, 5.0, 7.0, 8.0, 9.0, and 10.0) (Figures S2–S7). FTIR analysis for P6–P8 was performed at a pD of 8.0 (Figures S8–S10). The bulk of FTIR studies were performed at pD 8.0, as the optimum pH range for hydrogelation is 7–9 for both SgI38–48[28] and P0.
(§1) All samples were prepared in nonstick Eppendorf tubes (Axygen, Inc.). Prior to the final sample preparation (for all FTIR samples and when otherwise stated), the TFA counteranions present in the peptide sample after HPLC purification were exchanged for chloride using the following protocol: lyophilized peptide was dissolved in deionized D2O (1.0 mL). HCl was added at a molar ratio of 13.7:1 HCl:peptide. For the Phe^CN mutants, the sample was divided into two groups and lyophilized. One sample was then redissolved in H2O (to avoid obscuring the O–D stretches in the nitrile region) and the other in D2O (to avoid overlapping of the O-H bending vibrations in the amide I region) to a final concentration of 2.0 mM, unless otherwise specified. All other peptide samples were redissolved in D2O. The exchange of TFA^– to chloride may be verified by a lack of signal at 1672 cm^–1, seen in the IR spectrum for the deuterium-exchanged TFA salt of P3, where the carbonyl signal from TFA is well separated from the amide I carbonyl high frequency stretch at 1684 cm^–1 (Figure S1). On the day of the peptide sample preparation, D2O was placed in an Eppendorf tube, was then used as background when collecting data points (0 h, 48 h, 1 week, etc.), and was assumed to absorb the same amount of H2O over time as the peptide sample prepared on the same day. The concentration of the peptide solutions was verified with the UV–vis absorbance peak at 280 nm using a molar absorptivity of 2560 M^–1 cm^–1 for all sequences (P0–P7). The pH/pD of the samples was then corrected to 8.0 using small volumes of NaOH and HCl (or NaOD and DCl). After attaining the desired pH/pD, samples were incubated at ambient temperature (ca. 22 °C) and followed over 7 days (or as specified) to allow for hydrogelation.

[4] = Stability of P0 gel in solution by MALDI-TOF mass spectrometry; details: P0 in H2O pH 8.0, chloride salt 1.0 mM and trifluoroacetate salt 0.5 mM, ambient temperature, 2 weeks, MALDI-TOF/TOF MS
Experimental: The identity and purity of all peptides were verified by electrospray or matrix-assisted laser desorption/ionization time-of-flight (MALDI-TOF) mass spectrometry (Bryn Mawr College, PA, at the Chemical Center, Lund University, Lund, Sweden, or at the Laboratory for Biological Mass Spectrometry at Texas A&M University, College Station, TX). Mass spectra were typically acquired using an Autoflex Speed MALDI TOF/TOF mass spectrometer (Bruker Daltonics) in positive reflector mode. A 1 μL peptide sample was mixed with 0.5 μL matrix solution, consisting of 5 mg/ml α-cyano-4-hydroxy cinnamic acid, 80% acetonitrile, and 0.1% TFA, and added to a MALDI stainless steel plate. All spectra were externally calibrated using Peptide Calibration Standard II (Bruker Daltonics) containing 9 internal standard peptides. […]
All samples were prepared in nonstick Eppendorf tubes (Axygen, Inc.). […] The concentration of the peptide solutions was verified with the UV–vis absorbance peak at 280 nm using a molar absorptivity of 2560 M^–1 cm^–1 for all sequences (P0–P7). […]
Figure S16. P0 gel stability was evaluated by MALDI-TOF analysis. […] (A) A sample of P0 in H2O at pH 8.0, chloride salt (1.0 mM) and (B) trifluoroacetate salt (0.5 mM) were prepared for stability and analyzed by MALDI-TOF mass spectrometry. […]
degradation was observed over 2 weeks. […] The calculated mass for P0 [M+H]+ m/z = 1585.72. […]

Solubility in water = experiment: Solubility in water
[5] = FTIR amide I: β-sheet self-assembly; details: D2O, pD 8.0, 2.0 mM (P7, P8 and F40FCN 1.0 mM), ambient temperature
Experimental: as §1
FT IR was performed with a Bruker Vertex 70 spectrometer with a photovoltaic mercury cadmium telluride (MTC) detector. Before the spectral collection, the MCT detector was cooled with liquid nitrogen. A background spectrum (see hydrogel sample preparation above) was collected (6 μL of H2O or D2O), and the collection chamber was purged for 15 min before 6 μL of sample was loaded in between two CaF2 windows and separated by a 50-μm Teflon spacer in a 25-mm diameter demountable liquid cell (Harrick Scientific). After purging again, the IR spectrum was collected with 512 scans, with a resolution of 2 cm^–1, from 900 cm^–1 to 4000 cm^–1 at time t = 0 h, 24 h, 48 h, and 1 week (and sometimes longer) after sample constitution, processed using OPUS spectroscopy software, and plotted with Origin or KaleidaGraph.

Row | SMILES | Diameter of fibril bundle (cryo-TEM) ([1]; after 7 days of incubation at 21 °C, bundle of approximately 5 fibrils) | Fibril axis ratio ([2]; pH 8.0) | Fibril cross-sectional area ([2]; pH 8.0) | Fibril minor radius (minor semiaxis) ([2]; pH 8.0) | Repeat distance of sharp SAXS peak at q = 0.305 Å^–1 ([2]; after 1 day of incubation at 21 °C) | Colloidal stability / phase separation of the hydrogel ([3]; visual inspection after hydrogel preparation, pH/pD 8.0, 2.0 mM, ambient temperature) | Degradation in solution [4] | Optimum pH range for hydrogelation ([3]; P0) | Hydrogel formation on pH adjustment ([3]; P0 in H2O at pH 8.0, chloride salt 1.0 mM and trifluoroacetate salt 0.5 mM) | Gel appearance over time (clear or cloudy / precipitate) ([3]; visual inspection, 2.0 mM in D2O, pD 8.0, ambient temperature, 24 h to 6 days) | Presence of fibrils (cryo-TEM) ([1]; pH 8.0 water, 2.0 mM (P7 1.0 mM), incubation at 21 °C) | Solubility in water (in words) (Solubility in water; P7 and P8 not tested above 1.0 mM at pH 8) | solubility (Solubility in water; pH 8.0, read-out: Solubility limit in water) | Fibril formation by SAXS scattering ([2]; 2.0 mM P0–P6, 1.0 mM P7, 7 days at 21 °C, pH 8.0) | β-Sheet secondary structure (self-assembly) by FTIR amide I [5] | Hydrogel formation ([3]; visual inspection, peptide in water/D2O, pH/pD 8.0, 2.0 mM (P7 1.0 mM), ambient temperature ca. 22 °C, up to 7 days)
1 | CC[C@H](C)[C@H](NC(C)=O)C(=O)N[C@@H](CCC(N)=O)C(=O)N[C@@H](Cc1ccc(O)cc1)C(=O)N[C@H](C(=O)N[C@@H](Cc1ccc(O)cc1)C(=O)N[C@@H](Cc1c[nH]cn1)C(=O)N[C@H](C(=O)N[C@@H](CC(=O)O)C(N)=O)C(C)C)[C@@H](C)O [P5] (Ac-IQYTYHVD-NH2) | ~10 nm | 1.9 | 65.0 nm^2 | 3.3 nm | 2.1 nm | colloidally unstable and undergoes phase separation | – | – | – | – | – | – | – | – | – | –
2 | CC[C@H](C)[C@H](NC(=O)[C@H](CO)NC(=O)[C@H](Cc1ccccc1)NC(=O)[C@H](CO)NC(=O)CNC(=O)[C@H](CCCCN)NC(C)=O)C(=O)N[C@@H](CCC(N)=O)C(=O)N[C@@H](Cc1ccc(O)cc1)C(=O)N[C@H](C(=O)N[C@@H](Cc1ccc(O)cc1)C(=O)N[C@@H](Cc1c[nH]cn1)C(=O)N[C@H](C(=O)N[C@@H](CC(=O)O)C(N)=O)C(C)C)[C@@H](C)O [P0] (Ac-KGSFSIQYTYHVD-NH2) | – | 2.8 | 14.9 nm^2 | 1.3 nm | – | – | No appreciable, if any; also recorded: No degradation | 7–9 | soft gel immediately formed | usually yields a clear gel upon preparation but occasionally turns cloudy | – | – | – | – | – | –
3 | CC(=O)N[C@@H](Cc1ccc(O)cc1)C(=O)N[C@H](C(=O)N[C@@H](Cc1ccc(O)cc1)C(=O)N[C@@H](Cc1c[nH]cn1)C(=O)N[C@H](C(=O)N[C@@H](CC(=O)O)C(N)=O)C(C)C)[C@@H](C)O [P7] (Ac-YTYHVD-NH2) | – | – | – | – | – | – | – | – | – | – | contains no fibrils | low solubility | 1000 µM (≈ 838 µg/mL) | no significant scattering is observed | no sign of a β-sheet secondary structure; also recorded: unstructured | inability of P7 to form a hydrogel
